Laboratory results from patent US9783537B2, “3-(4-ethylnylphenyl) pyridopyrimidinone compounds and process for preparation thereof useful as potential anticancer agents” (Council of Scientific & Industrial Research, priority 2013, dated 2017).
“Also recorded” adds a separate entry of the source. Read-outs that look alike come from different tables or passages of the source.

How the values were obtained:
[1] = tested on: SR; assay: SRB 48 h growth assay, Leukemia SR; type: cell-based, human; details: for GI50 / CC50: Homo sapiens; for CC50: read-out: Log10 LC50 (converted)
[2] = tested on: eight renal cancer cell line (786-0, A498, ACHN, CAKI-1, SN12C, TK-10, UO-31 and RXF 393); assay: in vitro anticancer activity, renal panel; type: cell-based; details: Homo sapiens; eight renal cancer cell lines, exposure at least 48 h; read-out: in vitro anticancer activity, range over panel
[3] = tested on: sixty human cancer cell lines; assay: anticancer activity against sixty human cancer cell lines (NCI)
Method: The compounds were evaluated for anticancer activity against sixty human cancer cells derived from nine cancer types (leukemia cell line, non-small-cell lung cell line, colon cell line, CNS cell line, melanoma cell line, ovarian cell line, prostate cell line, renal cell line and breast cancer cell line) as shown in Table 1. For each compound, dose response curves for each cell line were measured at a minimum of five concentrations at 10 fold dilutions. A protocol of 48 h continuous drug exposure was used and a sulforhodamine B (SRB) protein assay was used to estimate cell viability or growth.

[4] = tested on: MOLT-4; assay: SRB 48 h growth assay, Leukemia MOLT-4; type: cell-based, human; details: MOLT-4, Leukemia; for GI50 / CC50: Homo sapiens; for CC50: read-out: Log10 LC50 (converted)
[5] = tested on: COLO 205; assay: SRB 48 h growth assay, Colon COLO 205; type: cell-based, human; details: COLO 205, Colon; for GI50 / CC50: Homo sapiens; for CC50: read-out: Log10 LC50 (converted)
[6] = tested on: U251; assay: SRB 48 h growth assay, CNS U251; type: cell-based, human; details: for GI50 / CC50: Homo sapiens; for CC50: U-251, read-out: Log10 LC50 (converted)
[7] = tested on: HCT-15; assay: SRB 48 h growth assay, Colon HCT-15; type: cell-based, human; details: HCT-15, Colon
[8] = tested on: SF-539; assay: SRB 48 h growth assay, CNS SF-539; type: cell-based, human; details: SF-539, CNS
[9] = tested on: MALME-3M; assay: SRB 48 h growth assay, Melanoma MALME-3M; type: cell-based, human; details: for GI50 / CC50: Homo sapiens; for CC50: read-out: Log10 LC50 (converted)
[10] = tested on: IGROV1; assay: SRB 48 h growth assay, Ovarian IGROV1; type: cell-based, human; details: for GI50 / CC50: Homo sapiens; for CC50: IGROV-1, read-out: Log10 LC50 (converted)
[11] = tested on: HT-29; assay: SRB 48 h growth assay, Colon HT-29; type: cell-based, human; details: HT-29, Colon; for GI50 / CC50: Homo sapiens; for CC50: read-out: Log10 LC50 (converted)
[12] = tested on: NCI-H460; assay: SRB 48 h growth assay, Non-small Cell Lung NCI-H460; type: cell-based, human
[13] = tested on: A498; assay: SRB 48 h growth assay, Renal A498; type: cell-based, human
[14] = tested on: UO-31; assay: SRB 48 h growth assay, Renal UO-31; type: cell-based, human; details: UO-31, Renal; for GI50 / CC50: Homo sapiens; for CC50: read-out: Log10 LC50 (converted)
[15] = tested on: CAKI-1; assay: SRB 48 h growth assay, Renal CAKI-1; type: cell-based, human; details: CAKI-1, Renal; for GI50 / CC50: Homo sapiens; for CC50: read-out: Log10 LC50 (converted)
[16] = read-out: Growth Inhibition GI50
[17] = read-out: Log10 GI50 (converted)
[18] = U-251, read-out: Growth Inhibition GI50
[19] = U-251, read-out: Log10 GI50 (converted)
[20] = Homo sapiens, read-out: Growth Inhibition GI50
[21] = Homo sapiens, read-out: Log10 GI50 (converted)
[22] = Homo sapiens, read-out: Log10 LC50 (converted)
[23] = IGROV-1, read-out: Growth Inhibition GI50
[24] = IGROV-1, read-out: Log10 GI50 (converted)

Work on `C#Cc1ccc(-n2c(/C=C/c3ccc(Cl)c(F)c3)nc3ncccc3c2=O)cc1` [4g, (E)-2-(4-chloro-3-fluorostyryl)-3-(4-ethynylphenyl)pyrido[2,3-d]pyrimidin-4(3H)-one] yielded a GI50 [1, 16] of 0.33 µM, a GI50 [1, 17] of 0.331 µM and a CC50 [1] of over 100 µM. The GI50 [2] was 0.28 to 0.36 µM, the “anticancer activity (in words)” value [3] was “highest anticancer activity; also recorded: good profile at nanomolar range growth inhibition activity in several cancer cell lines” and the GI50 [4, 16] was 0.54 µM. For the same compound, the GI50 [4, 17] was 0.55 µM, the CC50 [4] was over 100 µM and the “Log10 TGI50” value [4] was over −4.00.
`C#Cc1ccc(-n2c(/C=C/c3ccc(O)cc3)nc3ncccc3c2=O)cc1` [4b, (E)-3-(4-Ethynylphenyl)-2-(4-hydroxystyryl)pyrido[2,3-d]pyrimidin-4(3H)-one] was tested, and the “Log10 TGI50” value [5] was over −4.00, the GI50 [5, 16] was over 100 µM and the GI50 [5, 17] was over 100 µM. For the same compound, the CC50 [5] was over 100 µM, the “Log10 TGI50” value [6] was over −4.00 and the GI50 [6, 18] was 4.02 µM. For the same compound, the GI50 [6, 19] was 3.98 µM, the CC50 [6] was over 100 µM and the “Log10 TGI50” value [1] was over −4.00. It also gave a GI50 [1, 16] of 3.54 µM, a GI50 [1, 17] of 3.55 µM and a CC50 [1] of over 100 µM. The “Log10 TGI50” value [7] was over −4.00, the GI50 [7, 20] was 4.65 µM and the GI50 [7, 21] was 4.68 µM. The CC50 [7, 22] was over 100 µM, the GI50 [8, 20] was 2.12 µM and the GI50 [8, 21] was 2.14 µM. The CC50 [8, 22] was over 74.1 µM, the “Log10 TGI50” value [8] was −5.21 and the “Log10 TGI50” value [9] was over −4.00. The GI50 [9, 16] was 5.13 µM, the GI50 [9, 17] was 5.13 µM and the CC50 [9] was over 100 µM. The GI50 [2] was 2.63 to 20.5 µM, the “Log10 TGI50” value [10] was −4.45 and the GI50 [10, 23] was 4.69 µM. For the same compound, the GI50 [10, 24] was 4.68 µM, the CC50 [10] was over 100 µM and the “Log10 TGI50” value [11] was over −4.00. The GI50 [11, 16] was 52.8 µM, the GI50 [11, 17] was 52.5 µM and the CC50 [11] was over 100 µM. For the same compound, the “Log10 TGI50” value [12] was −4.85, the GI50 [12, 20] was 3.33 µM and the GI50 [12, 21] was 3.31 µM. For the same compound, the LC50 [12, 22] was over 100 µM, the GI50 [4, 16] was 7.35 µM and the GI50 [4, 17] was 7.41 µM. The CC50 [4] was over 100 µM, the “Log10 TGI50” value [4] was over −4.00 and the “Log10 TGI50” value [13] was −5.16. For the same compound, the GI50 [13, 20] was 2.48 µM, the GI50 [13, 21] was 2.45 µM and the CC50 [13, 22] was over 100 µM. It also gave a GI50 [14, 16] of 3.79 µM, a GI50 [14, 17] of 3.8 µM and a CC50 [14] of over 100 µM. For the same compound, the “Log10 TGI50” value [14] was −4.47, the “Log10 TGI50” value [15] was over −4.00 and the GI50 [15, 16] was 4.15 µM. It also gave a GI50 [15, 17] of 4.17 µM and a CC50 [15] of over 100 µM.
`C#Cc1ccc(-n2c(/C=C/c3ccc4ccccc4n3)nc3ncccc3c2=O)cc1` [4t, (E)-3-(4-Ethynylphenyl)-2-(2-(quinolin-2-yl)vinyl)pyrido[2,3-d]pyrimidin-4(3H)-one] was tested, and the “Log10 TGI50” value [5] was −6.13, the GI50 [5, 16] was 0.3 µM and the GI50 [5, 17] was 0.302 µM. For the same compound, the CC50 [5] was 3.63 µM, the “Log10 TGI50” value [6] was −5.84 and the GI50 [6, 18] was 0.34 µM. For the same compound, the GI50 [6, 19] was 0.339 µM, the CC50 [6] was 8.13 µM and the GI50 [1, 16] was 0.27 µM. For the same compound, the GI50 [1, 17] was 0.275 µM, the CC50 [1] was over 100 µM and the “Log10 TGI50” value [7] was −5.88. For the same compound, the GI50 [7, 20] was 0.32 µM, the GI50 [7, 21] was 0.331 µM and the GI50 [8, 20] was 0.2 µM. The GI50 [8, 21] was 0.204 µM, the “Log10 TGI50” value [8] was −6.29 and the “Log10 TGI50” value [9] was −5.50. The GI50 [9, 16] was 1.21 µM, the GI50 [9, 17] was 1.2 µM and the CC50 [9] was 8.32 µM. The GI50 [2] was 1.48 to 8.78 µM, the “Log10 TGI50” value [10] was −5.87 and the GI50 [10, 23] was 0.4 µM. The GI50 [10, 24] was 0.398 µM, the CC50 [10] was 5.37 µM and the “Log10 TGI50” value [11] was −5.96. The GI50 [11, 16] was 0.36 µM, the GI50 [11, 17] was 0.372 µM and the CC50 [11] was 4.27 µM. For the same compound, the “Log10 TGI50” value [12] was −6.03, the GI50 [12, 20] was 0.29 µM and the GI50 [12, 21] was 0.302 µM. The GI50 [4, 16] was 0.45 µM, the GI50 [4, 17] was 0.457 µM and the CC50 [4] was over 100 µM. For the same compound, the “Log10 TGI50” value [4] was over −4.00, the “Log10 TGI50” value [13] was −6.14 and the GI50 [13, 20] was 0.22 µM. It also gave a GI50 [13, 21] of 0.229 µM, a GI50 [14, 16] of 0.31 µM and a GI50 [14, 17] of 0.316 µM. The CC50 [14] was 6.92 µM, the “Log10 TGI50” value [14] was −5.78 and the “Log10 TGI50” value [15] was −5.81. It also gave a GI50 [15, 16] of 0.32 µM, a GI50 [15, 17] of 0.324 µM and a CC50 [15] of over 100 µM.
